# Key:
# [1] = biological target: T1, CrHydA1 ([FeFe] hydrogenase) (Chlamydomonas reinhardtii, UniProt Q9FYU1); assay: IR titration with Na2SO3 (source of SO2) at pH […] and […] fit; format: binding
# T1 construct: gene hyd1; CrHydA1^PDT (chemical variant with propane dithiolate bridging ligand in [2Fe]H)
# T1 sequence (Q9FYU1 57-497): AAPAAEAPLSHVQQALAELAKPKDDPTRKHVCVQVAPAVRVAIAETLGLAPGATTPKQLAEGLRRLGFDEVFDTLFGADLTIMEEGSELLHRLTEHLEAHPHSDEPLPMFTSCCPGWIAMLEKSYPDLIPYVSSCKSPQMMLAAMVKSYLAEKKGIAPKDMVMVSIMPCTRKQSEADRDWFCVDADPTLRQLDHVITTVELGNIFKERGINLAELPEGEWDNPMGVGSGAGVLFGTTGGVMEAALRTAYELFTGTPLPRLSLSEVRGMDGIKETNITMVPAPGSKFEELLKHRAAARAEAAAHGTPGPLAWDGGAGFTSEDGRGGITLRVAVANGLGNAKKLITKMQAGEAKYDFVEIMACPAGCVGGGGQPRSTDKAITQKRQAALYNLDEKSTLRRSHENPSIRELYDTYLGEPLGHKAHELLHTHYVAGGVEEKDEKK
# [2] = biological target: T2, CpHydA1 ([FeFe] hydrogenase HydA1) (Clostridium pasteurianum, UniProt P29166); assay: IR spectroscopy, conversion to HoxH with Na2SO3 at low pH; format: binding
# T2 sequence (P29166 1-574): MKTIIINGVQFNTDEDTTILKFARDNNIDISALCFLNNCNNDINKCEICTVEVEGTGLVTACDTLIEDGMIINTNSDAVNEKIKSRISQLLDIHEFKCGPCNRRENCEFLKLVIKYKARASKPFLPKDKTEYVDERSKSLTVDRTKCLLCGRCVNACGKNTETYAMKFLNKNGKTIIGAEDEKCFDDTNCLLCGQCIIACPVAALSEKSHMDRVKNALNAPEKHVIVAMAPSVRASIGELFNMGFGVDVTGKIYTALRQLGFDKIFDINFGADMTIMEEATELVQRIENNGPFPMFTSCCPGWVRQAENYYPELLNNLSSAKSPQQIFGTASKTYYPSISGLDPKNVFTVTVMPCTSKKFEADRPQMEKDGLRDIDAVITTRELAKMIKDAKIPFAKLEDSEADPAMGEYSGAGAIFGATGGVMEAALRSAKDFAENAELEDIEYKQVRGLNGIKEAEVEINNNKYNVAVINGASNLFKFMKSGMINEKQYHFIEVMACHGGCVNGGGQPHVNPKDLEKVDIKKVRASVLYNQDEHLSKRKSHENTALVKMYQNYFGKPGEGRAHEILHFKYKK
structure (smiles),measurement,setting,value
O=S=O [SO2],Kd,[1],~0.5 µM
same,"IR spectroscopy, conversion to HoxH with Na2SO3 at low pH",[2],SO2 binding caused formation of HoxH not only with CrHydA1 but also with the bacterial enzymes CpHydA1 and DdHydAB

# Reference: paper PMC8569811, “The Nonphysiological Reductant Sodium Dithionite and [FeFe] Hydrogenase: Influence on the Enzyme Mechanism” (Journal of the American Chemical Society, 2021)
